Data taken from PMC6792352, “Limited Chemical Structural Diversity Found to Modulate Thyroid Hormone Receptor in the Tox21 Chemical Library” (Environmental Health Perspectives, 2019).
Counter-ions that a name gives are not always drawn. Like-named read-outs stand apart in the source and are kept apart here.

Columns and labels:
GH3-TRE-Luc cell line = conditions: read-out: AC50 (uM) modified / 1000, viability, 1 nM T3 present, 24 h
in vitro = conditions: rat, gh3-tre-luc cells, AC50 (uM) modified / 1000

## CC1(C)C(C(=O)OC(C#N)c2cccc(Oc3ccccc3)c2)C1(C)C (stereo not drawn) [Fenpropathrin]
GH3-TRE-Luc cell line; Tox21_110001=Tox21_300882
  CC50: 80.7 µM
In vitro
  CC50 at 24 h: > 90 µM

## CO[C@H]1/C=C/O[C@@]2(C)Oc3c(C)c(O)c4c(O)c(c(/C=N/N5CCN(C)CC5)c(O)c4c3C2=O)NC(=O)/C(C)=C\C=C\[C@H](C)[C@H](O)[C@@H](C)[C@@H](O)[C@@H](C)[C@H](OC(C)=O)[C@@H]1C [Rifampicin]
GH3-TRE-Luc cell line; Tox21_110001=Tox21_111329
  CC50: 24.2 µM
GH3-TRE-Luc cell line; Tox21_110001=Tox21_300550
  CC50: 32.4 µM
In vitro
  CC50 at 24 h: 29.8 µM

## ClC(Cl)=C(c1ccc(Cl)cc1)c1ccc(Cl)cc1 [p,p'-DDE]
GH3-TRE-Luc cell line; Tox21_110001=Tox21_300109
  CC50: 63.5 µM
In vitro
  CC50 at 24 h: 48.6 µM

## Cc1cc(C(C)(C)CC(C)(C)C)ccc1OCCOCC[N+](C)(C)Cc1ccccc1 [Methylbenzethonium chloride]
GH3-TRE-Luc cell line; Tox21_110001=Tox21_301446
  CC50: 7.92 µM
In vitro
  CC50 at 24 h: 9.38 µM

## Oc1ccc2ccccc2c1N=Nc1ccccc1 [C.I. Solvent Yellow 14]
GH3-TRE-Luc cell line; Tox21_110001=Tox21_300297
  CC50: 62.3 µM
In vitro
  CC50 at 24 h: > 90 µM

## CC1(C)[C@@H](O)CC[C@]2(C)[C@H]3C(=O)C=C4[C@@H]5C[C@@](C)(C(=O)O)CC[C@]5(C)CC[C@@]4(C)[C@]3(C)CC[C@@H]12 [Glycyrrhetinic acid]
GH3-TRE-Luc cell line; Tox21_110001=Tox21_110804
  CC50: 24.8 µM
GH3-TRE-Luc cell line; Tox21_110001=Tox21_112726
  CC50: 19.8 µM
In vitro
  CC50 at 24 h: 28 µM

## CN(C)CCC(c1ccc(Cl)cc1)c1ccccn1 (stereo not drawn) [Chlorpheniramine maleate]
GH3-TRE-Luc cell line; Tox21_110001=Tox21_303456
  CC50: 41.3 µM
In vitro
  CC50 at 24 h: 40.4 µM

## Oc1ccc(Cl)cc1Cc1cc(Cl)ccc1O [Dichlorophen]
GH3-TRE-Luc cell line; Tox21_110001=Tox21_111112
  CC50: 15.4 µM
GH3-TRE-Luc cell line; Tox21_110001=Tox21_303013
  CC50: 27.4 µM
In vitro
  CC50 at 24 h: 16.7 µM

## Clc1ccc(C(c2ccccc2Cl)C(Cl)(Cl)Cl)cc1 (stereo not drawn) [o,p'-DDT]
GH3-TRE-Luc cell line; Tox21_110001=Tox21_300622
  CC50: 39.9 µM
In vitro
  CC50 at 24 h: 34 µM

## OCCOCCN1CCN(C(c2ccccc2)c2ccc(Cl)cc2)CC1 (stereo not drawn) [Hydroxyzine]
GH3-TRE-Luc cell line; Tox21_110001=Tox21_302563
  CC50: 16.6 µM
In vitro
  CC50 at 24 h: 18.1 µM

## Cc1cc(O)c2c(c1)C(=O)c1cc(O)cc(O)c1C2=O [Emodin]
GH3-TRE-Luc cell line; Tox21_110001=Tox21_303218
  CC50: 34.9 µM
In vitro
  CC50 at 24 h: 29.1 µM

## Oc1c(Cl)cc(Cl)c(Cl)c1Cc1c(O)c(Cl)cc(Cl)c1Cl [Hexachlorophene]
GH3-TRE-Luc cell line; Tox21_110001=Tox21_111099
  CC50: 14.8 µM
GH3-TRE-Luc cell line; Tox21_110001=Tox21_302741
  CC50: 22.4 µM
In vitro
  CC50 at 24 h: 17.1 µM

## C1CN(SSN2CCOCC2)CCO1 [4,4'-Dithiodimorpholine]
GH3-TRE-Luc cell line; Tox21_110001=Tox21_303110
  CC50: 49.5 µM
In vitro
  CC50 at 24 h: 69.4 µM

## CC[C@H]1OC(=O)[C@H](C)[C@@H](O[C@H]2C[C@@](C)(OC)[C@@H](O)[C@H](C)O2)[C@H](C)[C@@H](O[C@@H]2O[C@H](C)C[C@H](N(C)C)[C@H]2O)[C@](C)(O)C[C@@H](C)CN(C)[C@H](C)[C@@H](O)[C@]1(C)O [Azithromycin]
GH3-TRE-Luc cell line; Tox21_110001=Tox21_111008
  CC50: 35.5 µM
In vitro
  CC50 at 24 h: 28.3 µM

## Cc1ccc(S(=O)(=O)Oc2ccc(N=Nc3ccc(-c4ccc(N=Nc5c(O)ccc6cc(S(=O)(=O)O)cc(S(=O)(=O)O)c56)c(C)c4)cc3C)cc2)cc1 [C.I. Acid Red 114]
GH3-TRE-Luc cell line; Tox21_110001=Tox21_302977
  CC50: 17.5 µM
In vitro
  CC50 at 24 h: 32.3 µM

## Nc1ccc([N+](=O)[O-])cc1N [4-Nitro-1,2-phenylenediamine]
GH3-TRE-Luc cell line; Tox21_110001=Tox21_302811
  CC50: 26.4 µM
In vitro
  CC50 at 24 h: 21.8 µM

## OC(c1ccc(Cl)cc1)(c1cncnc1)c1ccccc1Cl (stereo not drawn) [Fenarimol]
GH3-TRE-Luc cell line; Tox21_110001=Tox21_300650
  CC50: 82.8 µM
In vitro
  CC50 at 24 h: > 90 µM

## O=C1CN(/N=C/c2ccc([N+](=O)[O-])o2)C(=O)N1 [Nitrofurantoin]
GH3-TRE-Luc cell line; Tox21_110001=Tox21_300602
  CC50: 70.6 µM
In vitro
  CC50 at 24 h: 62.5 µM

## CCNc1nc(NC(C)(C)C)nc(SC)n1 [Terbutryn]
GH3-TRE-Luc cell line; Tox21_110001=Tox21_303141
  CC50: 74.8 µM
In vitro
  CC50 at 24 h: > 90 µM

## CCCCCCCCCCCC[N+](C)(C)CCOc1ccccc1 [Domiphen bromide]
GH3-TRE-Luc cell line; Tox21_110001=Tox21_111054
  CC50: 12.4 µM
In vitro
  CC50 at 24 h: 10.6 µM

## CC(CCc1ccccc1)NCC(O)c1ccc(O)c(C(N)=O)c1 (stereo not drawn) [Labetalol hydrochloride]
GH3-TRE-Luc cell line; Tox21_110001=Tox21_302725
  CC50: 24.7 µM
In vitro
  CC50 at 24 h: 14.1 µM

## O=c1cc(-c2ccc(O)cc2)oc2cc(O)cc(O)c12 [Apigenin]
GH3-TRE-Luc cell line; Tox21_110001=Tox21_302884
  CC50: 77.9 µM
In vitro
  CC50 at 24 h: 42.3 µM

## CCCCCCCCOC(=O)c1ccc(O)cc1 [Octylparaben]
GH3-TRE-Luc cell line; Tox21_110001=Tox21_303430
  CC50: 46 µM
In vitro
  CC50 at 24 h: 60.4 µM

## COc1cc(-c2ccc(N)c(OC)c2)ccc1N [3,3'-Dimethoxybenzidine dihydrochloride]
GH3-TRE-Luc cell line; Tox21_110001=Tox21_300315
  CC50: 65 µM
In vitro
  CC50 at 24 h: > 90 µM

## CC(COc1ccccc1)N(CCCl)Cc1ccccc1 (stereo not drawn) [Phenoxybenzamine hydrochloride]
GH3-TRE-Luc cell line; Tox21_110001=Tox21_302978
  CC50: 68.5 µM
In vitro
  CC50 at 24 h: 45 µM

## N#Cc1nn(-c2c(Cl)cc(C(F)(F)F)cc2Cl)c(N)c1[S+]([O-])C(F)(F)F (stereo not drawn) [Fipronil]
GH3-TRE-Luc cell line; Tox21_110001=Tox21_111300
  CC50: 36.1 µM
In vitro
  CC50 at 24 h: 49.6 µM

## O=C1OC2(c3ccccc31)c1cc(I)c(O)c(I)c1Oc1c2cc(I)c(O)c1I [Erythrosin B]
GH3-TRE-Luc cell line; Tox21_110001=Tox21_301634
  CC50: 19.8 µM
In vitro
  CC50 at 24 h: 16.4 µM

## CCC(C)(c1ccc(O)cc1)c1ccc(O)cc1 [Bisphenol B]
GH3-TRE-Luc cell line; Tox21_110001=Tox21_300198
  CC50: 88.4 µM
In vitro
  CC50 at 24 h: 78.3 µM

## CCCCCCCCCCCCCC[P+](CCCC)(CCCC)CCCC [Tributyltetradecylphosphonium chloride]
GH3-TRE-Luc cell line; Tox21_110001=Tox21_303556
  CC50: 3.3 µM
In vitro
  CC50 at 24 h: 2.96 µM

## CCCCCCCC[N+](C)(C)CCCCCCCC [Dioctyldimethylammonium chloride]
GH3-TRE-Luc cell line; Tox21_110001=Tox21_113024
  CC50: 20.1 µM
In vitro
  CC50 at 24 h: 19.4 µM

## CCc1cccc(CC)c1N(COC)C(=O)CCl [Alachlor]
GH3-TRE-Luc cell line; Tox21_110001=Tox21_300713
  CC50: 78.7 µM
In vitro
  CC50 at 24 h: > 90 µM

## CCCCC/C=C/C=C/C=O [(E,E)-2,4-Decadienal]
GH3-TRE-Luc cell line; Tox21_110001=Tox21_303165
  CC50: 70.3 µM
In vitro
  CC50 at 24 h: > 90 µM

## Cc1ccc(C(C)(C)C)c(O)c1 [2-tert-Butyl-5-methylphenol]
GH3-TRE-Luc cell line; Tox21_110001=Tox21_300486
  CC50: 47.9 µM
In vitro
  CC50 at 24 h: 81 µM

## CC(C)(C)c1cc(C(C)(C)C)c(O)c(C(C)(C)C)c1 [2,4,6-Tris(tert-butyl)phenol]
GH3-TRE-Luc cell line; Tox21_110001=Tox21_300121
  CC50: 28.2 µM
In vitro
  CC50 at 24 h: 27.4 µM

## CC1COc2ccccc2N1C(=O)C(Cl)Cl (stereo not drawn) [Benoxacor]
GH3-TRE-Luc cell line; Tox21_110001=Tox21_303359
  CC50: 22.1 µM
In vitro
  CC50 at 24 h: 11.9 µM

## Oc1ccc(/C=C/c2cc(O)cc(O)c2)cc1 [Resveratrol]
GH3-TRE-Luc cell line; Tox21_110001=Tox21_303376
  CC50: 36.1 µM
In vitro
  CC50 at 24 h: 35 µM

## CC(C)C[C@H](NC(=O)[C@H](Cc1ccccc1)NC(=O)c1cnccn1)B(O)O [Bortezomib]
GH3-TRE-Luc cell line; Tox21_110001=Tox21_112672
  CC50: 0.00954 µM
In vitro
  CC50 at 24 h: 0.0167 µM
